Converted amounts (≈) assume the structure as drawn.
Experiments:
Nematode eggs = assay: Plant pathogenic nematode inhibition test by dipping: nematode egg hatch inhibition (NY/T 1154.5-2006); assay type: in vivo
Method: A plant pathogenic nematode inhibition test is conducted by dipping with the compounds in Table 1; and by referring to NY/T 1154.5-2006 (Part 5: Dipping Test for Insecticide Ovicidal Activity), the nematode egg hatch inhibition activity of the compounds is tested, as shown in Table 2: […]

Nematode J2 = assay: Plant pathogenic nematode inhibition test by dipping: second-stage juveniles; assay type: in vivo
Earthworm = Earthworm toxicity test (Test Guidelines on Environmental Safety Assessment for Chemical Pesticides); assay type: in vivo; settings: cell adds 'low toxicity'
Method: (§1) According to the earthworm and edaphon toxicity test procedures as prescribed in the Test Guidelines on Environmental Safety Assessment for Chemical Pesticides, earthworm and edaphon toxicity tests are conducted on compounds 1 to 60 from Table 1. The simulative usual dose of pesticide in the edaphon test is 40 ppm.

Edaphon = Edaphon toxicity test (Test Guidelines on Environmental Safety Assessment for Chemical Pesticides); settings: 15 d; 100 times of usual dose (simulative usual dose 40 ppm); cell adds 'low toxicity'
Method: as §1

Row | Compound | LC50 (Nematode eggs; in vivo) [µg/mL] | LC50 (Nematode J2; in vivo) [µg/mL] | Earthworm Toxicity LC50 (14 d) (Earthworm) | Edaphon Toxicity (15 d) (Inhibition ratio when added amount is 100 times of usual dose) (Edaphon) | LC50 (Nematode eggs; Test object: nematode eggs, dipping) [µg/mL] | LC50 (Nematode J2; Test object: nematode J2 (second-stage juveniles), dipping) [µg/mL]
1 | O=C1CC(C(=O)OCCC(F)=C(F)F)C(c2c(F)cccc2C(F)(F)F)O1 (stereo not shown) [Compound 31] | 9.60 (≈ 24 µM) | 10.07 (≈ 25.2 µM) | >10, low toxicity mg/L | <50%, low toxicity |  | 
2 | O=C1CC(C(=O)OCCC(F)=C(F)F)C(c2ccc(C(F)(F)F)cc2F)O1 (stereo not shown) [Compound 32] | 12.14 (≈ 30.3 µM) | 13.23 (≈ 33.1 µM) | >10, low toxicity mg/L | <50%, low toxicity |  | 
3 | COc1c(F)cc(C2OC(=O)CC2C(=O)OCCC(F)=C(F)F)cc1F (stereo not shown) [Compound 33] | 12.08 (≈ 31.8 µM) | 13.37 (≈ 35.2 µM) | >10, low toxicity mg/L | <50%, low toxicity |  | 
4 | COc1ccccc1C1OC(=O)CC1C(=O)OCCC=C(F)F (stereo not shown) [Compound 34] |  |  | >10, low toxicity mg/L | <50%, low toxicity | 12.42 (≈ 38.1 µM) | 13.10 (≈ 40.1 µM)
5 | COc1ccccc1C1OC(=O)CC1C(=O)OCCC(F)=C(F)F (stereo not shown) [Compound 35] | 10.84 (≈ 31.5 µM) | 11.67 (≈ 33.9 µM) | >10, low toxicity mg/L | <50%, low toxicity |  | 
6 | COc1cccc(C2OC(=O)CC2C(=O)OCCC=C(F)F)c1 (stereo not shown) [Compound 36] | 11.24 (≈ 34.4 µM) | 12.64 (≈ 38.7 µM) | >10, low toxicity mg/L | <50%, low toxicity |  | 
7 | COc1cccc(C2OC(=O)CC2C(=O)OCCC(F)=C(F)F)c1 (stereo not shown) [Compound 37] | 12.84 (≈ 37.3 µM) | 13.67 (≈ 39.7 µM) | >10, low toxicity mg/L | <50%, low toxicity |  | 
8 | COc1ccc(C2OC(=O)CC2C(=O)OCCC=C(F)F)cc1 (stereo not shown) [Compound 38] | 12.14 (≈ 37.2 µM) | 13.40 (≈ 41.1 µM) | >10, low toxicity mg/L | <50%, low toxicity |  | 
9 | COc1ccc(C2OC(=O)CC2C(=O)OCCC(F)=C(F)F)cc1 (stereo not shown) [Compound 39] | 11.85 (≈ 34.4 µM) | 13.40 (≈ 38.9 µM) | >10, low toxicity mg/L | <50%, low toxicity |  | 
10 | O=C1CC(C(=O)OCCC=C(F)F)C(c2ccccc2OC(F)(F)F)O1 (stereo not shown) [Compound 40] | 10.04 (≈ 26.4 µM) | 13.40 (≈ 35.2 µM) | >10, low toxicity mg/L | <50%, low toxicity |  | 
11 | O=C1CC(C(=O)OCCC(F)=C(F)F)C(c2ccccc2OC(F)(F)F)O1 (stereo not shown) [Compound 41] | 11.41 (≈ 28.6 µM) | 13.86 (≈ 34.8 µM) | >10, low toxicity mg/L | <50%, low toxicity |  | 
12 | COc1ccc(C2OC(=O)CC2C(=O)OCCC(F)=C(F)F)c(C(F)(F)F)c1 (stereo not shown) [Compound 42] | 12.39 (≈ 30.1 µM) | 10.40 (≈ 25.2 µM) | >10, low toxicity mg/L | <50%, low toxicity |  | 
13 | CCOc1ccccc1C1OC(=O)CC1C(=O)OCCC(F)=C(F)F (stereo not shown) [Compound 43] | 11.98 (≈ 33.4 µM) | 13.35 (≈ 37.3 µM) | >10, low toxicity mg/L | <50%, low toxicity |  | 
14 | CCOc1ccc(C2OC(=O)CC2C(=O)OCCC(F)=C(F)F)cc1 (stereo not shown) [Compound 44] | 10.23 (≈ 28.6 µM) | 13.12 (≈ 36.6 µM) | >10, low toxicity mg/L | <50%, low toxicity |  | 
15 | O=C1CC(C(=O)OCCC=C(F)F)C(c2ccccc2C(F)(F)F)O1 (stereo not shown) [Compound 45] | 10.14 (≈ 27.8 µM) | 12.35 (≈ 33.9 µM) | >10, low toxicity mg/L | <50%, low toxicity |  | 
16 | O=C1CC(C(=O)OCCC(F)=C(F)F)C(c2ccccc2C(F)(F)F)O1 (stereo not shown) [Compound 46] | 9.98 (≈ 26.1 µM) | 11.24 (≈ 29.4 µM) | >10, low toxicity mg/L | <50%, low toxicity |  | 
17 | O=C1CC(C(=O)OCCC=C(F)F)C(c2cc(C(F)(F)F)cc(C(F)(F)F)c2)O1 (stereo not shown) [Compound 47] | 11.41 (≈ 26.4 µM) | 12.24 (≈ 28.3 µM) | >10, low toxicity mg/L | <50%, low toxicity |  | 
18 | O=C1CC(C(=O)OCCC(F)=C(F)F)C(c2cc(C(F)(F)F)cc(C(F)(F)F)c2)O1 (stereo not shown) [Compound 48] | 12.25 (≈ 27.2 µM) | 13.27 (≈ 29.5 µM) | >10, low toxicity mg/L | <50%, low toxicity |  | 
19 | N#Cc1ccc(C2OC(=O)CC2C(=O)OCCC(F)=C(F)F)cc1 (stereo not shown) [Compound 49] | 10.36 (≈ 30.5 µM) | 11.35 (≈ 33.5 µM) | >10, low toxicity mg/L | <50%, low toxicity |  | 
20 | O=C1CC(C(=O)OCCC(F)=C(F)F)C(c2cccc(Oc3cccc(C(F)(F)F)c3)c2)O1 (stereo not shown) [Compound 52] | 10.12 (≈ 21.3 µM) | 13.28 (≈ 28 µM) | >10, low toxicity mg/L | <50%, low toxicity |  | 
21 | Cc1ccc(Oc2ccccc2C2OC(=O)CC2C(=O)OCCC(F)=C(F)F)cc1 (stereo not shown) [Compound 53] | 8.98 (≈ 21.4 µM) | 12.35 (≈ 29.4 µM) | >10, low toxicity mg/L | <50%, low toxicity |  | 
22 | O=C1CC(C(=O)OCCC(F)=C(F)F)C(c2ccc(Oc3ccc(Cl)cc3)cc2)O1 (stereo not shown) [Compound 54] | 12.40 (≈ 28.1 µM) | 14.16 (≈ 32.1 µM) | >10, low toxicity mg/L | <50%, low toxicity |  | 
23 | O=C1CC(C(=O)OCCC(F)=C(F)F)C(c2ccc(Oc3ccc(F)cc3)cc2)O1 (stereo not shown) [Compound 55] | 13.24 (≈ 31.2 µM) | 15.36 (≈ 36.2 µM) | >10, low toxicity mg/L | <50%, low toxicity |  | 
24 | O=C1CC(C(=O)OCCC(F)=C(F)F)C(c2ccc(OCc3ccc(F)cc3)cc2)O1 (stereo not shown) [Compound 56] | 11.56 (≈ 26.4 µM) | 13.47 (≈ 30.7 µM) | >10, low toxicity mg/L | <50%, low toxicity |  | 
25 | O=C1CC(C(=O)OCCC(F)=C(F)F)C(c2cccc([N+](=O)[O-])c2)O1 (stereo not shown) [Compound 57] | 12.12 (≈ 33.7 µM) | 14.23 (≈ 39.6 µM) | >10, low toxicity mg/L | <50%, low toxicity |  | 
26 | O=C1CC(C(=O)OCCC(F)=C(F)F)C(c2ccc([N+](=O)[O-])cc2)O1 (stereo not shown) [Compound 58] | 10.07 (≈ 28 µM) | 12.18 (≈ 33.9 µM) | >10, low toxicity mg/L | <50%, low toxicity |  | 
27 | Nc1ccccc1C1OC(=O)CC1C(=O)OCCC(F)=C(F)F (stereo not shown) [Compound 59] | 11.24 (≈ 34.1 µM) | 13.24 (≈ 40.2 µM) | >10, low toxicity mg/L | <50%, low toxicity |  | 
28 | Nc1ccc(C2OC(=O)CC2C(=O)OCCC(F)=C(F)F)cc1 (stereo not shown) [Compound 60] | 8.40 (≈ 25.5 µM) | 10.06 (≈ 30.6 µM) | >10, low toxicity mg/L | <50%, low toxicity |  | 

Source: patent US10111428B2, “Nematocide containing lactonic ring and preparation method and application thereof” (priority 2015, dated 2018)
